Test results reported in patent publication US8895581B2, “1H-imidazo[4,5-c]quinolines” (Boehringer Ingelheim International GmbH, priority 2010, dated 2014).

Biological target: Recombinant human PDK1 enzyme (aa 52-556) (Homo sapiens (Human), UniProt O15530)
Test: PDK1 kinase assay
Assay type: biochemical
Conditions: 25 μM ATP solution with gamma-P33-ATP, PDKtide substrate, 90 min at RT
Method: The activity of the compounds according to the invention on the kinase PDK1 which inhibits the signal transduction pathway is determined in an in vitro kinase assay with recombinantly prepared protein:
Recombinant human PDK1 enzyme (aa 52-556) linked at its N-terminal end to His6 is isolated from baculovirus-infected insect cells. Purified enzyme may be obtained for example from the University of Dundee, Scotland. The following components are combined in a well of a 96-well round-based dish (Greiner bio-one, No. 650101): • 1. 15 μL of compound to be tested in varying concentrations (e.g. starting at 10 μM, and diluted in steps of 1:5) in APT buffer (50 mM Tris/Cl pH7.5; 0.05% β-mercaptoethanol; 10 mM Mg-acetate; 0.0166% Tween 20; 3.33% DMSO) • 2. 15 μL His6-PDK1 (aa 52-556) 3.33 ng/well) and PDKtide (KTFCGTPEYLAPEVRRE […]), synthesised by Pepceuticals Limited, Nottingham, United Kingdom; 25 μM final concentration); His6-PDK1 and PDKtide are together diluted accordingly in assay buffer (50 mM tris pH 7.5, 0.05% β-mercaptoethanol, 10 mM Mg-acetate); PDKtide is present in this mixture as an 83.3 μM solution. These 30 μl are routinely incubated for 30 min at RT. • 3. 20 μL ATP solution (25 μM ATP with 1.0 μCi/well gamma-P33-ATP). The final concentration of Tween 20 is 0.005%.
The reaction is started by adding the ATP solution and the mixture is incubated for 90 min at RT. At the start of the reaction the dishes are shaken gently. The reaction is stopped by the addition of 50 μL/well of 500 mM phosphoric acid (H3PO4) and incubated for about 20 min at RT. The precipitate is transferred by harvesting onto filter plates (96-well microtitre filter plate: UniFilter GF/C; Perkin Elmer; No. 6005174), then washed 6 times with 50 mM H3PO4 and dried at 60° C. Then the plate is stuck down with sealing tape, 25 μL/well of scintillation solution (Microscint 0; Perkin Elmer; No. 6013611) are added and the amount of P33 precipitated is measured using the Wallac Betacounter. The measured data are evaluated using Graphpad Prism software.

Sequence of Recombinant human PDK1 enzyme (aa 52-556) (O15530 52-556): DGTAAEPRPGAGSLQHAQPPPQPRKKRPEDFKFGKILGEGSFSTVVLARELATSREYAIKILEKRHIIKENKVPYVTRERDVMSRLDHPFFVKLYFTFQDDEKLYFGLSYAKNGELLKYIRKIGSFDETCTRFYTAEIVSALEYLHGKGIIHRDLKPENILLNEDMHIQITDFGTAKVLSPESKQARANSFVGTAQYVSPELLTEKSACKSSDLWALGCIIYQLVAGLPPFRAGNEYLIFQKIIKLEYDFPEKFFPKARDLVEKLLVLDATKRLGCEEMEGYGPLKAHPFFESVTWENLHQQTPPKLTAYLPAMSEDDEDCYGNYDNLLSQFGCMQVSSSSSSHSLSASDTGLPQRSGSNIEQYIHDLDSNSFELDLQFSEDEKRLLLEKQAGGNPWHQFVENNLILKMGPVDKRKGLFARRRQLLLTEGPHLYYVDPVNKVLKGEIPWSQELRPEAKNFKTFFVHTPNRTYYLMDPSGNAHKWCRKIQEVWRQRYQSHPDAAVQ

SMILES | IC50
CN(C)CCn1cnc2cnc3ccc(C#CCNC(=O)c4cncn(Cc5ccc(F)c(F)c5)c4=O)cc3c21 [I-5] | 50 nM
CN1CC[C@@H](n2cnc3cnc4ccc(C#CCNC(=O)c5cncn(Cc6ccc(F)c(F)c6)c5=O)cc4c32)C1 [I-6] | 26 nM
CN1CC[C@H](n2cnc3cnc4ccc(C#CCNC(=O)c5cncn(Cc6ccc(F)c(F)c6)c5=O)cc4c32)C1 [I-7] | 18 nM
CN(C)CCCn1cnc2cnc3ccc(C#CCNC(=O)c4cncn(Cc5ccc(F)c(F)c5)c4=O)cc3c21 [I-8] | 16 nM
CN1CCC[C@@H](n2cnc3cnc4ccc(C#CCNC(=O)c5cncn(Cc6ccc(F)c(F)c6)c5=O)cc4c32)C1 [I-9] | 10 nM
CC(C)N1CCC(n2cnc3cnc4ccc(C#CCNC(=O)c5cncn(Cc6ccc(F)c(F)c6)c5=O)cc4c32)CC1 [I-11] | 11 nM
O=C(NCC#Cc1ccc2ncc3ncn([C@H]4CCCNC4)c3c2c1)c1cncn(Cc2ccc(F)c(F)c2)c1=O [I-12] | 9 nM
O=C(NCC#Cc1ccc2ncc3ncn([C@@H]4CCNC4)c3c2c1)c1cncn(Cc2ccc(F)c(F)c2)c1=O [I-13] | 16 nM
O=C(NCC#Cc1ccc2ncc3ncn(C4CCNCC4)c3c2c1)c1cncn(Cc2ccc(F)c(F)c2)c1=O [I-14] | 8 nM
O=C(NCC#Cc1ccc2ncc3ncn([C@H]4CCNC4)c3c2c1)c1cncn(Cc2ccc(F)c(F)c2)c1=O [I-15] | 28 nM
Cc1nc2cnc3ccc(C#CCNC(=O)c4cccn(Cc5ccccc5)c4=O)cc3c2n1C(C)C [II-2] | 8 nM
Cc1nc2cnc3ccc(C#CCNC(=O)c4cccn(Cc5ccc(F)c(F)c5)c4=O)cc3c2n1C(C)C [II-3] | 2 nM
Cc1nc2cnc3ccc(C#CCNC(=O)c4cccn([C@H](C)c5ccc(F)c(F)c5)c4=O)cc3c2n1C(C)C [II-7] | 55 nM
Cc1nc2cnc3ccc(C#CCNC(=O)c4cccn([C@H](C)C5CCCCC5)c4=O)cc3c2n1C(C)C [II-8] | 507 nM
Cc1cc(C(=O)NCC#Cc2ccc3ncc4nc(C)n(C(C)C)c4c3c2)c(=O)n([C@@H](C)c2ccc(F)c(F)c2)n1 [II-11] | 70 nM
Cc1nc2cnc3ccc(C#CCNC(=O)c4cccn([C@@H](C)C5CCCCC5)c4=O)cc3c2n1C(C)C [II-14] | 34 nM
Cc1nc2cnc3ccc(C#CCNC(=O)c4cccn(CC5CCCCC5)c4=O)cc3c2n1C(C)C [II-18] | 14 nM
Cc1nc2cnc3ccc(C#CCNC(=O)c4cccn([C@@H](CN)c5ccccc5)c4=O)cc3c2n1C(C)C [II-22] | 16 nM

SMILES | IC50
Cc1nc2cnc3ccc(C#CCNC(=O)c4cccn(CC5C[C@@H]6CC[C@H]5C6)c4=O)cc3c2n1C(C)C (stereo partly drawn) [II-23] | 15 nM
Cc1nc2cnc3ccc(C#CCNC(=O)c4cccn(CC5CCOCC5)c4=O)cc3c2n1C(C)C [II-24] | 590 nM
Cc1nc2cnc3ccc(C#CCNC(=O)c4cccn(CC5CCCCO5)c4=O)cc3c2n1C(C)C (stereo not drawn) [II-25] | 1020 nM
Cc1nc2cnc3ccc(C#CCNC(=O)c4cccn(CC5CCCC5)c4=O)cc3c2n1C(C)C [II-26] | 27 nM
Cc1nc2cnc3ccc(C#CCNC(=O)c4cccn(CC5(O)CCCCC5)c4=O)cc3c2n1C(C)C [II-27] | 1100 nM
Cc1nc2cnc3ccc(C#CCNC(=O)c4cccn(C[C@H]5CCCC[C@H]5O)c4=O)cc3c2n1C(C)C [II-28] | 221 nM
Cc1nc2cnc3ccc(C#CCNC(=O)c4cccn(CC5CCCOC5)c4=O)cc3c2n1C(C)C (stereo not drawn) [II-29] | 202 nM
Cc1nc2cnc3ccc(C#CCNC(=O)c4cccn(Cc5ccc(F)c(F)c5)c4=O)cc3c2n1C1CCN(C(C)C)CC1 [II-31] | 8 nM
O=C(NCC#Cc1ccc2ncc3ncn([C@@H]4CCNC4)c3c2c1)c1cccn([C@H](CO)c2ccccc2)c1=O [III-1] | 18 nM
Cc1cc(C(=O)NCC#Cc2ccc3ncc4ncn([C@H]5CC[C@@H](N(C)C)CC5)c4c3c2)c(=O)n(Cc2ccc(F)c(F)c2)n1 [III-3] | 15 nM
Cc1nc2cnc3ccc(C#CCNC(=O)c4ccnn(Cc5ccc(F)c(F)c5)c4=O)cc3c2n1C1CCN(C(C)C)CC1 [III-4] | 21 nM
Cc1nc2cnc3ccc(C#CCNC(=O)c4cc(Cl)nn(Cc5ccc(F)c(F)c5)c4=O)cc3c2n1CCc1ccccc1 [III-7] | 7 nM
O=C(NCC#Cc1ccc2ncc3ncn(C4CCNCC4)c3c2c1)c1cccn([C@H](CO)c2ccccc2)c1=O [III-8] | 2010 nM
CN(C)CCn1cnc2cnc3ccc(C#CCNC(=O)c4cccn(Cc5ccccc5)c4=O)cc3c21 [III-10] | 277 nM
O=C(NCC#Cc1ccc2ncc3ncn(CCO)c3c2c1)c1cccn(Cc2ccc(F)c(F)c2)c1=O [III-11] | 18 nM
O=C(NCC#Cc1ccc2ncc3ncn(CCO)c3c2c1)c1cccn(Cc2ccccc2)c1=O [III-12] | 68 nM
Cc1nc2cnc3ccc(C#CCNC(=O)c4cncn(Cc5ccc(F)c(F)c5)c4=O)cc3c2n1CCN(C)C [III-13] | 53 nM

Further lines, results first:

IC50 | SMILES
1 nM | O=C(NCC#Cc1ccc2ncc3nc[nH]c3c2c1)c1cncn(Cc2ccc(F)c(F)c2)c1=O [I-1, 1-(3,4-difluoro-benzyl)-6-oxo-1,6-dihydro-pyrimidine-5-carboxylic acid [3-(1H-imidazo[4,5-c]quinolin-8-yl)-prop-2-ynyl]-amide]
4 nM | O=C(NCC#Cc1ccc2ncc3ncn(CCO)c3c2c1)c1cncn(Cc2ccc(F)c(F)c2)c1=O [I-2]
4 nM | O=C(NCC#Cc1ccc2ncc3ncn(C4CCC4)c3c2c1)c1cncn(Cc2ccc(F)c(F)c2)c1=O [I-3]
2 nM | O=C(NCC#Cc1ccc2ncc3ncn(CCCO)c3c2c1)c1cncn(Cc2ccc(F)c(F)c2)c1=O [I-4]
2 nM | CN1CCC(n2cnc3cnc4ccc(C#CCNC(=O)c5cncn(Cc6ccc(F)c(F)c6)c5=O)cc4c32)CC1 [I-10]
2 nM | Cc1cc(C(=O)NCC#Cc2ccc3ncc4nc(C)n(C(C)C)c4c3c2)c(=O)n([C@H](C)c2ccc(F)c(F)c2)n1 [II-1]
5 nM | Cc1nc2cnc3ccc(C#CCNC(=O)c4cc(Cl)nn(Cc5ccc(F)c(F)c5)c4=O)cc3c2n1C(C)C [II-4]
4 nM | CCOc1cc(C(=O)NCC#Cc2ccc3ncc4nc(C)n(C(C)C)c4c3c2)c(=O)n(Cc2ccc(F)c(F)c2)n1 [II-5]
1 nM | Cc1nc2cnc3ccc(C#CCNC(=O)c4cccn([C@H](CO)c5cccc(F)c5)c4=O)cc3c2n1C(C)C [II-6]
2 nM | Cc1nc2cnc3ccc(C#CCNC(=O)c4cccn([C@H](CO)c5ccc(F)c(F)c5)c4=O)cc3c2n1C(C)C [II-9]
2 nM | Cc1nc2cnc3ccc(C#CCNC(=O)c4cncn(Cc5ccc(F)c(F)c5)c4=O)cc3c2n1C(C)C [II-10]
5 nM | CCc1c(C(=O)NCC#Cc2ccc3ncc4nc(C)n(C(C)C)c4c3c2)c(=O)n(Cc2ccc(F)c(F)c2)n1C [II-12]
5 nM | Cc1nc2cnc3ccc(C#CCNC(=O)c4c(C)n(C)n(C(C)c5ccc(F)c(F)c5)c4=O)cc3c2n1C(C)C (stereo not drawn) [II-15]
5 nM | Cc1nc2cnc3ccc(C#CCNC(=O)c4c(C)n(C)n(Cc5ccc(F)c(F)c5)c4=O)cc3c2n1C(C)C [II-16]
1 nM | Cc1nc2cnc3ccc(C#CCNC(=O)c4cccn([C@@H](C)c5ccc(F)c(F)c5)c4=O)cc3c2n1C(C)C [II-17]
1 nM | COc1cc(C(=O)NCC#Cc2ccc3ncc4nc(C)n(C(C)C)c4c3c2)c(=O)n(Cc2ccc(F)c(F)c2)n1 [II-19]
2 nM | Cc1nc2cnc3ccc(C#CCNC(=O)c4cccn([C@@H](CO)c5ccccc5)c4=O)cc3c2n1C(C)C [II-21]
2 nM | Cc1nc2cnc3ccc(C#CCNC(=O)c4cccn([C@@H](CN)c5ccc(F)c(F)c5)c4=O)cc3c2n1C(C)C [II-30]
3 nM | Cc1nc2cnc3ccc(C#CCNC(=O)c4cccn([C@@H](C)c5ccc(F)c(F)c5)c4=O)cc3c2n1C1CCN(C(C)C)CC1 [II-32]
6 nM | Cc1nc2cnc3ccc(C#CCNC(=O)c4cccn(Cc5ccc(F)c(F)c5)c4=O)cc3c2n1C1CCN(C)CC1 [II-34]
7 nM | CC(C)N1CCC(n2cnc3cnc4ccc(C#CCNC(=O)c5cccn(Cc6ccc(F)c(F)c6)c5=O)cc4c32)CC1 [II-35]
2 nM | CC(C)N1CCC(n2cnc3cnc4ccc(C#CCNC(=O)c5cccn([C@@H](C)c6ccc(F)c(F)c6)c5=O)cc4c32)CC1 [III-2]
1 nM | Cc1nc2cnc3ccc(C#CCNC(=O)c4cccn([C@@H](C)c5ccc(F)c(F)c5)c4=O)cc3c2n1[C@H]1CC[C@@H](N(C)C)CC1 [III-5]
2 nM | Cc1nc2cnc3ccc(C#CCNC(=O)c4cccn([C@@H](C)c5ccc(F)c(F)c5)c4=O)cc3c2n1C1CCN(C)CC1 [III-6]
1 nM | CN1CCC(n2cnc3cnc4ccc(C#CCNC(=O)c5cc(Cl)nn(Cc6ccc(F)c(F)c6)c5=O)cc4c32)CC1 [III-14]
